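The compound was tested at five concentrations on cells cultured in 96-well plates, with a 48-hour exposure period. At the TGI there is no net growth.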
How the values were obtained:
Assay in all cases: DTP human tumour cell line panel, 48 h
786-0 renal = test system: 786-0 renal
A498 renal = test system: A498 renal
A549 NSCLC = test system: A549 NSCLC
ACHN renal = test system: ACHN renal
BT-549 breast = test system: BT-549 breast
CAKI-1 renal = test system: CAKI-1 renal
CCRF-CEM leukemia = test system: CCRF-CEM leukemia
COLO 205 colon = test system: COLO 205 colon
DU-145 prostate = test system: DU-145 prostate
EKVX NSCLC = test system: EKVX NSCLC
HCT-116 colon = test system: HCT-116 colon
HCT-15 colon = test system: HCT-15 colon
HL-60(TB) leukemia = test system: HL-60(TB) leukemia
HOP-62 NSCLC = test system: HOP-62 NSCLC
HOP-92 NSCLC = test system: HOP-92 NSCLC
HS 578T breast = test system: HS 578T breast
HT29 colon = test system: HT29 colon
IGROV1 ovarian = test system: IGROV1 ovarian
K-562 leukemia = test system: K-562 leukemia
KM12 colon = test system: KM12 colon
LOX IMVI melanoma = test system: LOX IMVI melanoma
M14 melanoma = test system: M14 melanoma
MALME-3M melanoma = test system: MALME-3M melanoma
MDA-MB-231 breast = test system: MDA-MB-231 breast
MDA-MB-435 = test system: MDA-MB-435
MDA-N = test system: MDA-N
MOLT-4 leukemia = test system: MOLT-4 leukemia
NCI-H226 lung = test system: NCI-H226 lung
NCI-H23 lung = test system: NCI-H23 lung
NCI-H460 lung = test system: NCI-H460 lung
NCI-H522 lung = test system: NCI-H522 lung
NCI/ADR-RES ovarian = test system: NCI/ADR-RES ovarian
OVCAR-3 ovarian = test system: OVCAR-3 ovarian
OVCAR-4 ovarian = test system: OVCAR-4 ovarian
OVCAR-5 ovarian = test system: OVCAR-5 ovarian
OVCAR-8 ovarian = test system: OVCAR-8 ovarian
PC-3 prostate = test system: PC-3 prostate
RPMI-8226 leukemia = test system: RPMI-8226 leukemia
RXF 393 renal = test system: RXF 393 renal
SF-268 CNS = test system: SF-268 CNS
SF-295 CNS = test system: SF-295 CNS
SF-539 CNS = test system: SF-539 CNS
SK-MEL-2 melanoma = test system: SK-MEL-2 melanoma
SK-MEL-28 melanoma = test system: SK-MEL-28 melanoma
SK-MEL-5 melanoma = test system: SK-MEL-5 melanoma
SK-OV-3 ovarian = test system: SK-OV-3 ovarian
SN12C renal = test system: SN12C renal
SNB-19 CNS = test system: SNB-19 CNS
SR leukemia = test system: SR leukemia
SW-620 colon = test system: SW-620 colon
T-47D breast = test system: T-47D breast
TK-10 renal = test system: TK-10 renal
U251 CNS = test system: U251 CNS
UACC-257 melanoma = test system: UACC-257 melanoma
UACC-62 melanoma = test system: UACC-62 melanoma
UO-31 renal = test system: UO-31 renal

Measured: TGI

O=C1CSSCC(=O)Nc2ccccc2N1
> 100 µM: all assays above

CC(CCC(=O)O)(c1ccc(O)cc1)c1ccc(O)cc1
not listed: CCRF-CEM leukemia | COLO 205 colon | HL-60(TB) leukemia | RPMI-8226 leukemia | SF-539 CNS | SK-OV-3 ovarian
> 100 µM: all other assays above

— PubChem BioAssay (NCI)
